Test results: patent US9783527B2, “Indazole ureas and method of use” (AbbVie Inc., priority 2014, dated 2017)

Target: human Nav1.7 (Homo sapiens (Human), UniProt Q15858)
Assay: FRET-based membrane potential assay, recombinant human sodium channel Nav1.7
Assay type: cell-based
Conditions: HEK293 cells stably expressing recombinant human Nav1.7; depolarization with veratridine (EC80) + scorpion venom
Summary of the method: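 IC50 derived by four-parameter Hill fit of percent inhibition of depolarization, measured as peak F440-480/F565-625 ratio over baseline. Stable human Nav1.7 HEK293 cells, dye-loaded with CC2-DMPE and DiSBAC2(3)/VABSC-1 at room temperature, received compound 3 min ahead of veratridine (EC80) plus scorpion venom.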

human Nav1.7, sequence (Q15858 whole entry): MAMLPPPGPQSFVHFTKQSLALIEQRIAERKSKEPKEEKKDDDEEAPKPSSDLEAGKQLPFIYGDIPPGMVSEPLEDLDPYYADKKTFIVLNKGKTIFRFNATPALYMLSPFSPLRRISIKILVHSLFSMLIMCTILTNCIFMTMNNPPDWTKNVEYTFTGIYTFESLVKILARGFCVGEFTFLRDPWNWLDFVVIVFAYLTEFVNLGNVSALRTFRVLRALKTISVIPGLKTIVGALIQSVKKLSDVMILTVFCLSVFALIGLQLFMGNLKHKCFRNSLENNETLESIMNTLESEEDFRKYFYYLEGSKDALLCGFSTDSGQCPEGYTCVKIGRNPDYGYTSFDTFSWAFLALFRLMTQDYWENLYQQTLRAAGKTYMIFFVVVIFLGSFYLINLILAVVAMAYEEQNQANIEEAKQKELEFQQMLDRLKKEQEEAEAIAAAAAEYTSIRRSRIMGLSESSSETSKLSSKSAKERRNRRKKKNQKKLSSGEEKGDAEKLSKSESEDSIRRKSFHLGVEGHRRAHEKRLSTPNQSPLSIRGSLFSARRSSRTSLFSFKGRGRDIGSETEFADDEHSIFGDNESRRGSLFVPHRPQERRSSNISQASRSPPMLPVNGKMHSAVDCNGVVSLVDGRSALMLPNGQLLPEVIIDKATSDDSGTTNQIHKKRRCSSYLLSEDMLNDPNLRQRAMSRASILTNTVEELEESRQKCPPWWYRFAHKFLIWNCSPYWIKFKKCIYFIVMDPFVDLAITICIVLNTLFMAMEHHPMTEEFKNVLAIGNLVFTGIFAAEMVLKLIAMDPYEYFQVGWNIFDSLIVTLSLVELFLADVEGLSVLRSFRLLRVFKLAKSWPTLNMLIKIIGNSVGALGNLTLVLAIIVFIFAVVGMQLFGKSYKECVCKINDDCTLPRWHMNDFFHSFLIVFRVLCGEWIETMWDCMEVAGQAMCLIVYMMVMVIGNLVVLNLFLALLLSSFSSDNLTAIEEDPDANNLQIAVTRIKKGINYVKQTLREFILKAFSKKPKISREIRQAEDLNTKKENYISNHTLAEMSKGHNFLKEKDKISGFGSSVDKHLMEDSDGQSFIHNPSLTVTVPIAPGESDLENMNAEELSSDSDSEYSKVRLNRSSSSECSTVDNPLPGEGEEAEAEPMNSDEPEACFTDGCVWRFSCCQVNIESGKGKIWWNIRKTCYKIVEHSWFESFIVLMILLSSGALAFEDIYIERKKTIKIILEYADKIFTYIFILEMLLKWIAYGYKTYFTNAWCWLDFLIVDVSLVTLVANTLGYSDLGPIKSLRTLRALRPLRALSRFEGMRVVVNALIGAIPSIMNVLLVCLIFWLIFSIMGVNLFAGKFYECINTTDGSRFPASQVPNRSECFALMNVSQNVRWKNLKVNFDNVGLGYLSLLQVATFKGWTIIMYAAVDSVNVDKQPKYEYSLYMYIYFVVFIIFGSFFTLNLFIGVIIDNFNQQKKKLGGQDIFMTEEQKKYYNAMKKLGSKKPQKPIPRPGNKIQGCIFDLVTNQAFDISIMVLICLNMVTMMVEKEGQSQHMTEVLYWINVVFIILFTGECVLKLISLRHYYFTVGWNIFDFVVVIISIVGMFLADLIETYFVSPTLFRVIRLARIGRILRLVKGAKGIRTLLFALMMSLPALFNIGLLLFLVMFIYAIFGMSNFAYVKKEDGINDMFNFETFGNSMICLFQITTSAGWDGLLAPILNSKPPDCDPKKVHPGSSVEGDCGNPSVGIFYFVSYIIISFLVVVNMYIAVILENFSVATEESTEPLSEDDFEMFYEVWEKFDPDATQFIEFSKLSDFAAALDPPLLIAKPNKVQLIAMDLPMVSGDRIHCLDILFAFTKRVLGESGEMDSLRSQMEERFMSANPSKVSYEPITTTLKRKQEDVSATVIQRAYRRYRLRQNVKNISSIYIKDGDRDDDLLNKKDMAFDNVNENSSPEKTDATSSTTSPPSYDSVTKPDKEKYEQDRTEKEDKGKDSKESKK

SMILES | IC50
O=C1N(CC(=O)N2CCC[C@@H]2C(F)(F)F)CCN1c1cccc2c1cnn2-c1ccccc1F [Example 171, 1-[1-(2-fluorophenyl)-1H-indazol-4-yl]-3-{2-oxo-2-[(2R)-2-(trifluoromethyl)pyrrolidin-1-yl]ethyl}imidazolidin-2-one] | 0.285 µM
COC[C@H]1CC[C@H](COC)N1C(=O)CN1CCN(c2cccc3c2cnn3-c2ccccc2F)C1=O [Example 65, 1-{2-[(2R,5R)-2,5-bis(methoxymethyl)pyrrolidin-1-yl]-2-oxoethyl}-3-[1-(2-fluorophenyl)-1H-indazol-4-yl]imidazolidin-2-one] | 0.678 µM
CN1CC2CN(C(=O)CN3CCN(c4cccc5c4cnn5-c4ccccc4F)C3=O)CC2C1 (stereo not shown) [Example 104, 1-[1-(2-fluorophenyl)-1H-indazol-4-yl]-3-[2-(5-methylhexahydropyrrolo[3,4-c]pyrrol-2(1H)-yl)-2-oxoethyl]imidazolidin-2-one] | 6.26 µM
Cc1ccccc1CNC(=O)CN1CCN(c2cccc3c2cnn3-c2ccccc2F)C1=O [Example 175, 2-{3-[1-(2-fluorophenyl)-1H-indazol-4-yl]-2-oxoimidazolidin-1-yl}-N-(2-methylbenzyl)acetamide] | 2.65 µM
Cc1cnc(CN2CCN(c3cccc4c3cnn4-c3ccccc3F)C2=O)s1 [Example 263, 1-[1-(2-fluorophenyl)-1H-indazol-4-yl]-3-[(5-methyl-1,3-thiazol-2-yl)methyl]imidazolidin-2-one] | 0.494 µM
O=C1N(CC(O)CC2CCCC2)CCN1c1cccc2c1cnn2-c1ccccc1F (stereo not shown) [Example 135, 1-(3-cyclopentyl-2-hydroxypropyl)-3-[1-(2-fluorophenyl)-1H-indazol-4-yl]imidazolidin-2-one] | 0.904 µM
O=C1N(c2cccc3c2cnn3-c2ccccc2F)CCN1[C@H]1CO[C@@H](c2ccccc2F)C1 [Example 185, 1-[1-(2-fluorophenyl)-1H-indazol-4-yl]-3-[(3R,5R)-5-(2-fluorophenyl)tetrahydrofuran-3-yl]imidazolidin-2-one] | 0.965 µM
CN(CCN1CCOCC1)C(=O)CN1CCN(c2cccc3c2cnn3-c2ccccc2F)C1=O [Example 72, 2-{3-[1-(2-fluorophenyl)-1H-indazol-4-yl]-2-oxoimidazolidin-1-yl}-N-methyl-N-[2-(morpholin-4-yl)ethyl]acetamide] | 1.8 µM
CC(C)S(=O)(=O)N1CCN(c2cccc3c2cnn3-c2ccccc2F)C1=O [Example 82, 1-[1-(2-fluorophenyl)-1H-indazol-4-yl]-3-(isopropylsulfonyl)imidazolidin-2-one] | 2.46 µM
CC(C)c1cc(CN2CCN(c3cccc4c3cnn4-c3ccccc3F)C2=O)no1 [Example 251, 1-[1-(2-fluorophenyl)-1H-indazol-4-yl]-3-[(5-isopropyl-1,2-oxazol-3-yl)methyl]imidazolidin-2-one] | 2.06 µM
CCC(O)(CC(C)C)CN1CCN(c2cccc3c2cnn3-c2ccccc2F)C1=O (stereo not shown) [Example 148, 1-(2-ethyl-2-hydroxy-4-methylpentyl)-3-[1-(2-fluorophenyl)-1H-indazol-4-yl]imidazolidin-2-one] | 2.28 µM
O=C(CN1CCN(c2cccc3c2cnn3-c2ccccc2F)C1=O)N1CCCC2(CC1)OCCO2 [Example 110, 1-[2-(1,4-dioxa-8-azaspiro[4.6]undec-8-yl)-2-oxoethyl]-3-[1-(2-fluorophenyl)-1H-indazol-4-yl]imidazolidin-2-one] | 2.81 µM
CC(C)CS(=O)(=O)N1CCN(c2cccc3c2cnn3-c2ccccc2F)C1=O [Example 80, 1-[1-(2-fluorophenyl)-1H-indazol-4-yl]-3-(isobutylsulfonyl)imidazolidin-2-one] | 2.38 µM
O=C1N(c2cccc3c2cnn3-c2ccccc2F)CCN1C1CCC(O)C1 (stereo not shown) [Example 204, 1-[1-(2-fluorophenyl)-1H-indazol-4-yl]-3-(3-hydroxycyclopentyl)imidazolidin-2-one] | 3.41 µM
O=C1N(CC(=O)N2CC3CCC2C3)CCN1c1cccc2c1cnn2-c1ccccc1F (stereo not shown) [Example 202, 1-[2-(2-azabicyclo[2.2.1]hept-2-yl)-2-oxoethyl]-3-[1-(2-fluorophenyl)-1H-indazol-4-yl]imidazolidin-2-one] | 0.681 µM
Cc1noc([C@@H](C)N2CCN(c3cccc4c3cnn4-c3ccc(F)cc3F)C2=O)n1 [Example 253, 1-[1-(2,4-difluorophenyl)-1H-indazol-4-yl]-3-[(1R)-1-(3-methyl-1,2,4-oxadiazol-5-yl)ethyl]imidazolidin-2-one] | 0.932 µM
O=C(CN1CCN(c2cccc3c2cnn3-c2ccccc2F)C1=O)NCc1cc(F)ccc1F [Example 174, N-(2,5-difluorobenzyl)-2-{3-[1-(2-fluorophenyl)-1H-indazol-4-yl]-2-oxoimidazolidin-1-yl}acetamide] | 0.849 µM
O=C1NCCN1CCN1CCN(c2cccc3c2cnn3-c2ccccc2F)C1=O [Example 63, 1-[1-(2-fluorophenyl)-1H-indazol-4-yl]-3-[2-(2-oxoimidazolidin-1-yl)ethyl]imidazolidin-2-one] | 4.12 µM
Cc1nc(CN2CCN(c3cccc4c3cnn4-c3ccc(F)cc3F)C2=O)cs1 [Example 243, 1-[1-(2,4-difluorophenyl)-1H-indazol-4-yl]-3-[(2-methyl-1,3-thiazol-4-yl)methyl]imidazolidin-2-one] | 1.61 µM

SMILES | IC50
CO[C@H](CC(C)C)CN1CCN(c2cccc3c2cnn3-c2ccccc2F)C1=O [Example 214, 1-[1-(2-fluorophenyl)-1H-indazol-4-yl]-3-[(2R)-2-methoxy-4-methylpentyl]imidazolidin-2-one] | 2.02 µM
O=C(CN1CCN(c2cccc3c2cnn3-c2ccccc2F)C1=O)N1CCC(F)(F)C1 [Example 86, 1-[2-(3,3-difluoropyrrolidin-1-yl)-2-oxoethyl]-3-[1-(2-fluorophenyl)-1H-indazol-4-yl]imidazolidin-2-one] | 1.96 µM
O=C(CN1CCN(c2cccc3c2cnn3-c2ccccc2F)C1=O)NC1CCC(F)(F)CC1 [Example 356, N-(4,4-difluorocyclohexyl)-2-{3-[1-(2-fluorophenyl)-1H-indazol-4-yl]-2-oxoimidazolidin-1-yl}acetamide] | 1.86 µM
O=C(Nc1ccccc1)[C@H]1CCCN1C(=O)CN1CCN(c2cccc3c2cnn3-c2ccccc2F)C1=O [Example 120, 1-({3-[1-(2-fluorophenyl)-1H-indazol-4-yl]-2-oxoimidazolidin-1-yl}acetyl)-N-phenyl-D-prolinamide] | 4.18 µM
O=C1N(CC2CC2)CCN1c1cccc2c1cnn2-c1ccccc1F [Example 194, 1-(cyclopropylmethyl)-3-[1-(2-fluorophenyl)-1H-indazol-4-yl]imidazolidin-2-one] | 0.613 µM
C[C@H](NC(=O)CN1CCN(c2cccc3c2cnn3-c2ccccc2F)C1=O)c1ccccc1 [Example 178, 2-{3-[1-(2-fluorophenyl)-1H-indazol-4-yl]-2-oxoimidazolidin-1-yl}-N-[(1S)-1-phenylethyl]acetamide] | 2 µM
O=C(CN1CCN(c2cccc3c2cnn3-c2ccccc2F)C1=O)NCc1cccc(F)c1 [Example 173, N-(3-fluorobenzyl)-2-{3-[1-(2-fluorophenyl)-1H-indazol-4-yl]-2-oxoimidazolidin-1-yl}acetamide] | 0.8 µM
CS(=O)(=O)N1CCN(c2cccc3c2cnn3-c2ccccc2F)C1=O [Example 6, 1-[1-(2-fluorophenyl)-1H-indazol-4-yl]-3-(methylsulfonyl)imidazolidin-2-one] | 1.3 µM
CS(=O)(=O)N1CC(N2CCN(c3cccc4c3cnn4-c3ccccc3F)C2=O)C1 [Example 271, 1-[1-(2-fluorophenyl)-1H-indazol-4-yl]-3-[1-(methylsulfonyl)azetidin-3-yl]imidazolidin-2-one] | 3.45 µM
C[C@H]1CCCN1C(=O)CN1CCCN(c2cccc3c2cnn3-c2ccccc2F)C1=O [Example 187, 1-[1-(2-fluorophenyl)-1H-indazol-4-yl]-3-{2-[(2S)-2-methylpyrrolidin-1-yl]-2-oxoethyl}tetrahydropyrimidin-2(1H)-one] | 1.91 µM
O=C1N(c2cccc3c2cnn3-c2ccccc2F)CCN1C1CCC1 [Example 184, 1-cyclobutyl-3-[1-(2-fluorophenyl)-1H-indazol-4-yl]imidazolidin-2-one] | 1.06 µM
CC(C)CC(=O)CN1CCCN(c2cccc3c2cnn3-c2ccccc2F)C1=O [Example 188, 1-[1-(2-fluorophenyl)-1H-indazol-4-yl]-3-(4-methyl-2-oxopentyl)tetrahydropyrimidin-2(1H)-one] | 1.66 µM
CC(C)CNC(=O)CN1CCN(c2cccc3c2cnn3-c2ccccc2F)C1=O [Example 92, 2-{3-[1-(2-fluorophenyl)-1H-indazol-4-yl]-2-oxoimidazolidin-1-yl}-N-isobutylacetamide] | 1.86 µM
CC(C)CC1CCCN1C(=O)CN1CCN(c2cccc3c2cnn3-c2ccccc2F)C1=O (stereo not shown) [Example 117, 1-[1-(2-fluorophenyl)-1H-indazol-4-yl]-3-[2-(2-isobutylpyrrolidin-1-yl)-2-oxoethyl]imidazolidin-2-one] | 1.79 µM
CC(C)(C)C(=O)CN1CCN(c2cccc3c2cnn3-c2ccccc2F)C1=O [Example 161, 1-(3,3-dimethyl-2-oxobutyl)-3-[1-(2-fluorophenyl)-1H-indazol-4-yl]imidazolidin-2-one] | 1.4 µM
CC[C@@H](O)CN1CCN(c2cccc3c2cnn3-c2ccccc2F)C1=O [Example 160, 1-[1-(2-fluorophenyl)-1H-indazol-4-yl]-3-[(2R)-2-hydroxybutyl]imidazolidin-2-one] | 3.51 µM
NC(=O)Cn1ccn(-c2cccc3c2cnn3-c2ccccc2F)c1=O [Example 9, 2-{3-[1-(2-fluorophenyl)-1H-indazol-4-yl]-2-oxo-2,3-dihydro-1H-imidazol-1-yl}acetamide] | 0.959 µM
Cc1nc(CN2CCN(c3cccc4c3cnn4-c3ccccc3F)C2=O)c(C)o1 [Example 227, 1-[(2,5-dimethyl-1,3-oxazol-4-yl)methyl]-3-[1-(2-fluorophenyl)-1H-indazol-4-yl]imidazolidin-2-one] | 0.871 µM
